In ChEMBL document CHEMBL1139828, “Synthesis of 2,3-diaryl-1,3-thiazolidine-4-one derivatives as selective cyclooxygenase (COX-2) inhibitors” (Bioorg Med Chem Lett, 2007):

Columns and labels:
Homo sapiens = species: Homo sapiens; test: Selectivity index, ratio of IC50 for […]
[1] = molecular target: T1, Prostaglandin G/H synthase 2 (Homo sapiens, UniProt P35354)
T1 sequence (P35354 whole entry): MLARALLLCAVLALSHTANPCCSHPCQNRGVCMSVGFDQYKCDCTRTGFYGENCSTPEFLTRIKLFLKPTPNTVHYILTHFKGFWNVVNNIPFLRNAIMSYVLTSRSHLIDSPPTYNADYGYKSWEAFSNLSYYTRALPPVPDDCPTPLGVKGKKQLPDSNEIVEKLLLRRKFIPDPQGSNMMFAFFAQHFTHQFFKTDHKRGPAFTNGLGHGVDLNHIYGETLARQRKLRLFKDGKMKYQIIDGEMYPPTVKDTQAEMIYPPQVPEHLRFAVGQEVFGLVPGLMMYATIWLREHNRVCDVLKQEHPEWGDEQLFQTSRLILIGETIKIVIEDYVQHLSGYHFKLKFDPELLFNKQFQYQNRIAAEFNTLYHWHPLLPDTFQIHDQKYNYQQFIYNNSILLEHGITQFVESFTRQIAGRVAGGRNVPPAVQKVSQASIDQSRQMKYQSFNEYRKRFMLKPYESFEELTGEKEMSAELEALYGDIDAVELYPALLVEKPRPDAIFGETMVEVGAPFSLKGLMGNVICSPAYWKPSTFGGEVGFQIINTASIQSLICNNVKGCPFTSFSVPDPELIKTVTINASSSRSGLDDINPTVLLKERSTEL

[2] = molecular target: Prostaglandin G/H synthase 1 (Homo sapiens, UniProt P23219)
Chain of Prostaglandin G/H synthase 1 (P23219 whole entry): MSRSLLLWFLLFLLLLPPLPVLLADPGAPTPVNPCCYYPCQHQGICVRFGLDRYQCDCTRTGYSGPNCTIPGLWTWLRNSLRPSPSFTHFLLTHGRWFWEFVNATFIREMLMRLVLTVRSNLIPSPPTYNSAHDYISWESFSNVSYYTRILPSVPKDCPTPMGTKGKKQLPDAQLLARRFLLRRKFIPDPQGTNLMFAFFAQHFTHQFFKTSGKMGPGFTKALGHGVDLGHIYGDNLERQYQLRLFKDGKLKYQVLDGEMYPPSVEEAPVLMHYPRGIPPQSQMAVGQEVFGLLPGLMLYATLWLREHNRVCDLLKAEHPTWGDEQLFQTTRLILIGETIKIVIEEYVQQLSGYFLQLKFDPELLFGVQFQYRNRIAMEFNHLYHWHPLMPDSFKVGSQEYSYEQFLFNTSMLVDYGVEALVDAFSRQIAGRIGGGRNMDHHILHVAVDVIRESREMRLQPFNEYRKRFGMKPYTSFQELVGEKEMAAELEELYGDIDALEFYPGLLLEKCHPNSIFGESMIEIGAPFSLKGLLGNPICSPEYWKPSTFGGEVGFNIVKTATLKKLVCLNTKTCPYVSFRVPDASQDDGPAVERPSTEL

Compound `Cc1ccc(N2C(=O)CSC2c2ccc(S(C)(=O)=O)cc2)cc1` (configuration not stated) has a Ratio IC50 (Homo sapiens) of 359, an IC50 [1] of 150 nM and an IC50 [2] of 53900 nM.

Compound `CS(=O)(=O)c1ccc(C2SCC(=O)N2c2ccc(F)cc2)cc1` (configuration not stated) has a Ratio IC50 (Homo sapiens) of over 833, an IC50 [1] of 120 nM and an IC50 [2] of over 100000 nM.

For `COc1ccc(N2C(=O)CSC2c2ccc(S(C)(=O)=O)cc2)cc1` (configuration not stated), the Ratio IC50 (Homo sapiens) was over 625, the IC50 [1] was 160 nM and the IC50 [2] was over 100000 nM.

`CS(=O)(=O)c1ccc(C2SCC(=O)N2c2ccccc2)cc1` (configuration not stated) was tested, and the Ratio IC50 (Homo sapiens) was 480, the IC50 [1] was 200 nM and the IC50 [2] was 96100 nM.
